Measurements taken from US10894787B2, “Modulators of the GPR119 receptor and the treatment of disorders related thereto” (Arena Pharmaceuticals, Inc., priority 2010, dated 2021).

Experiment: Dynamic moisture-sorption (DMS) analysis
Assay type: physicochemical
Conditions: at about 90% RH and 25° C.
Description: A dynamic moisture-sorption (DMS) study was conducted using a dynamic moisture-sorption analyzer, VTI Corporation, SGA-100. Samples were prepared for DMS analysis by placing 5 mg to 20 mg of a sample in a tared sample holder. The sample was placed on the hang-down wire of the VTI balance. A drying step was run, typically at 40° C. and 0.5-1% RH for 1 h. The isotherm temperature is 25° C. Defined % RH holds typically ranged from 10% RH to 90% RH, with intervals of 10 to 20% RH. A % weight change smaller than 0.010% over 10 min, or up to 2 h, whichever occurred first, was required before continuing to the next % RH hold. The water content of the sample equilibrated as described above was determined at each % RH hold.

CN(C)C(=O)c1ccc(Nc2ncnc(N3CCC(c4nc(C(C)(C)F)no4)CC3)c2F)c(F)c1 [Compound 1 (Anhydrous Form), 3-fluoro-4-(5-fluoro-6-(4-(3-(2-fluoropropan-2-yl)-1,2,4-oxadiazol-5-yl)piperidin-1-yl)pyrimidin-4-ylamino)-N,N-dimethylbenzamide]
DMS weight gain: FIG. 8: Less than about 0.35% weight gain at about 90% RH
